Drawing on patent US10131669B2, “Pyrazolopyrimidine compounds” (Pfizer Inc., priority 2014, dated 2018), this text covers IC50 for 14 compounds.

Common to all, as to assay type: biochemical
One assay addresses T1, Human PDE4A3 (Homo sapiens, UniProt P27815).
T1 construct: His6 (N); FLAG (C); made in house; host or cells: insect cells (baculovirus, pFastBac)
Nature of the assay: PDE4A3 Scintillation Proximity Assay (SPA), inhibition of enzyme activity. Particulars: geometric mean of 2-7 determinations unless otherwise indicated (b: ≥8 determinations; c: single determination), 1 μM cAMP, 30 min at 25° C., read-out: Human PDE4A FL. The source says: (§1) Human PDE4A3 coding sequence (amino acids 2 to 825 from the sequence with accession number NP_001104779) was cloned into the baculovirus expression vector pFastBac (Invitrogen) engineered to include an N-terminal His6 affinity tag and a c-terminal FLAG affinity tag to aid in purification. The recombinant Bacmid was isolated and used to transfect insect cells to generate a viral stock. To generate cell paste for purification, insect cells were infected with the virus stock and cells were harvested 72 hours after infection. Insect cell paste was lysed and after centrifugation, the supernatant was batch bound to Ni-NTA agarose (GE Healthcare) and eluted with 250 mM imidazole. This eluate was diluted with FLAG buffer (50 mM Tris HCL pH 7.5, 100 mM NaCl, 5% Glycerol, 1 mM TCEP with protease inhibitors) and batch bound to ant-FLAG M2 agarose (Sigma) overnight at 4° C. The agarose was packed into a column, washed with buffer and eluted with buffer containing elute using 250 ug/ml Flag-peptide. Fractions were analyzed using SDS-PAGE Coomassie blue staining and pooled based on purity. Pooled fractions were chromatographed on a S200 120 ml column (GE Healthcare) in 50 mM Tris HCL pH 7.5, 150 mM NaCl, 10% Glycerol, 2 mM TCEP with protease inhibitors. PDE4A3 fractions were analyzed by SDS-PAGE Coomassie blue staining, pooled based on purity, dialyzed against 50 mM Tris HCL pH 7.5, 100 mM NaCl, 20% Glycerol, 2 mM TCEP, frozen and stored at −80° C.
(§2) The PDE4A3, PDE4B1, PDE4C1 and PDE4D3 assays use the Scintillation Proximity Assay (SPA) technology to measure the inhibition of human recombinant […], PDE4C1, and PDE4D3 enzyme activity by compounds in vitro. The PDE4A1, PDE4B3, PDE4C1, and PDE4D3 assays are run in parallel using identical parameters, except for the concentration of enzyme (80 pM PDE4A3, 40 pM PDE4B3, 40 pM PDE4C1 and 10 pM PDE4D). The assays are performed in a 384-well format with 50 uL assay buffer (50 mM TRIS pH7.5; 1.3 mM MgCl2; 0.01% Brij) containing enough PDE4A3, PDE4B1, PDE4C1, and PDE4D to convert ˜20% of substrate (1 μM cAMP consisting of 20 nM 3H-cAMP+[…] cold cAMP) and a range of inhibitors. Reactions are incubated for 30 min at 25° C. The addition of 20 uL of 8 mg/ml yitrium silicate SPA beads (Perkin Elmer) stops the reaction. The plates are sealed (TopSeal, Perkin Elmer) and the beads are allowed to settle for 8 hrs, after which they are read on the Trilux Microbeta overnight.

A further assay addresses T2, Human PDE4B1 (Homo sapiens, UniProt Q07343, S133E/S654A/S659A/S661A).
T2 construct: His6 (N); thrombin cleavage site (N); made in house; host or cells: insect cells (baculovirus, pFastBac)
Kind of assay: PDE4B1 Scintillation Proximity Assay (SPA), inhibition of enzyme activity. How it is done: The recombinant Bacmid was isolated and used to transfect insect cells to generate a viral stock. To generate cell paste for purification, insect cells were infected with the virus stock and cells were harvested 72 hours after infection as described in Seeger, T. F. et al., Brain Research 985 (2003) 113-126. Insect cell paste was lysed and after centrifugation, the supernatant was chromatographed on Ni-NTA agarose (Qiagen) as described in Seeger, T. F. et al., Brain Research 985 (2003) 113-126. Ni-NTA agarose eluting fractions containing PDE4 were pooled, diluted with Q buffer A (20 mM Tris HCl pH 8, 5% glycerol, 1 mM TCEP) to reduce NaCl to ˜100 mM and loaded on a Source 15Q (GE Healthcare) column. After washing with Q buffer A/10% buffer B to baseline, PDE4D was eluted with a gradient from 10% to 60% of Buffer B (20 mM Tris HCl pH 8, 1 M NaCl, 5% glycerol, 1 mM TCEP). PDE4D fractions were analyzed by SDS-PAGE Coomassie blue staining, pooled based on purity, frozen and stored at −80° C.
as §2
On the technique in general: SPA uses beads or plates that emit light when radiolabelled molecules are held near them.

For the next assay, the target named is T3, Human PDE4C1 (Homo sapiens, UniProt Q08493).
T3 construct: His6 (N); FLAG (C); made in house; host or cells: insect cells (baculovirus, pFastBac)
Kind of assay: PDE4C1 Scintillation Proximity Assay (SPA), inhibition of enzyme activity. Particulars: geometric mean of 2-7 determinations unless otherwise indicated (b: ≥8 determinations; c: single determination), 1 μM cAMP, 30 min at 25° C., read-out: Human PDE4C FL. The procedure: as §1, with “The” for “Human PDE4A3 coding sequence (amino acids 2 to 825 from the sequence with accession number NP_001104779) was cloned into the baculovirus expression vector pFastBac (Invitrogen) engineered to include an N-terminal His6 affinity tag and a c-terminal FLAG affinity tag to aid in purification. The”, “PDE4C1” for “PDE4A3”
as §2

In a further assay the target is T4, human PDE4D3 (Homo sapiens, UniProt Q08499).
T4 construct: His6 (C); made in house; host or cells: insect cells (baculovirus, pFastBac)
Nature of the assay: PDE4D3 Scintillation Proximity Assay (SPA), inhibition of enzyme activity. How it is done:
The recombinant Bacmid was isolated and used to transfect insect cells to generate a viral stock. To generate cell paste for purification, insect cells were infected and cells were harvested 72 hours after infection. Insect cell paste was lysed and after centrifugation, the supernatant was chromatographed on Ni-NTA agarose (Qiagen) as described in Seeger, T. F. et al., Brain Research 985 (2003) 113-126. Ni-NTA agarose eluting fractions containing PDE4 were pooled, diluted with Q Buffer A (50 mM Tris HCl pH 8, 4% glycerol, 100 mM NaCl, 1 mM TCEP, Protease inhibitors EDTA-free (Roche)) to reduce NaCl to ˜200 mM, and loaded on a Q Sepharose (GE Healthcare) column. After washing with Q buffer A to baseline, PDE4D was eluted with a gradient from 10% to 60% of Buffer B (50 mM Tris HCl pH 8, 1 M NaCl, 4% glycerol, 1 mM TCEP). PDE4D fractions were analyzed by SDS-PAGE Coomassie blue staining, pooled based on purity, frozen and stored at −80° C.
as §2

Where [1] appears, read: geometric mean of 2-7 determinations unless otherwise indicated (b: ≥8 determinations; c: single determination), 1 μM cAMP, 30 min at 25° C., read-out: Human PDE4B FL, IC50.
[2] abbreviates: geometric mean of 2-7 determinations unless otherwise indicated (b: ≥8 determinations; c: single determination), 1 μM cAMP, 30 min at 25° C., read-out: Human PDE4D FL, IC50.

Structures can show the parent of a compound that is named as a salt. Where two headings read alike, the source gives them in different places.

T4 sequence (Q08499 186-808): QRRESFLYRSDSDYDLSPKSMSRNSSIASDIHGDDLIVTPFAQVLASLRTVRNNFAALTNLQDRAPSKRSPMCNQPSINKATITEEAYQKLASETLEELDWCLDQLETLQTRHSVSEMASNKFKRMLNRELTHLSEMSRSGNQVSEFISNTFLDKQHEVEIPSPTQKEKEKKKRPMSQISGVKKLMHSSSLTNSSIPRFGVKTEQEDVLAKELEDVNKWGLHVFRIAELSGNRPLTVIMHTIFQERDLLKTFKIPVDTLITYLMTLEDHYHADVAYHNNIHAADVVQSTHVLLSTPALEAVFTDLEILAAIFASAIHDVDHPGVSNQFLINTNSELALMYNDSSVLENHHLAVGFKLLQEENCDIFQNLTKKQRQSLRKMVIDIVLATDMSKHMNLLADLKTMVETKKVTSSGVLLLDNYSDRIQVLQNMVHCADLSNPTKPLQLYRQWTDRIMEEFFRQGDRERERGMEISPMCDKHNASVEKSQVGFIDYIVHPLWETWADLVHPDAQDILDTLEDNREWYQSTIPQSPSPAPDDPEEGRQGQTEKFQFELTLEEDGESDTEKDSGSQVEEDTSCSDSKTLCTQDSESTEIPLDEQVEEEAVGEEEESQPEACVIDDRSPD
T2 sequence (Q07343 122-736 S133E/S654A/S659A/S661A): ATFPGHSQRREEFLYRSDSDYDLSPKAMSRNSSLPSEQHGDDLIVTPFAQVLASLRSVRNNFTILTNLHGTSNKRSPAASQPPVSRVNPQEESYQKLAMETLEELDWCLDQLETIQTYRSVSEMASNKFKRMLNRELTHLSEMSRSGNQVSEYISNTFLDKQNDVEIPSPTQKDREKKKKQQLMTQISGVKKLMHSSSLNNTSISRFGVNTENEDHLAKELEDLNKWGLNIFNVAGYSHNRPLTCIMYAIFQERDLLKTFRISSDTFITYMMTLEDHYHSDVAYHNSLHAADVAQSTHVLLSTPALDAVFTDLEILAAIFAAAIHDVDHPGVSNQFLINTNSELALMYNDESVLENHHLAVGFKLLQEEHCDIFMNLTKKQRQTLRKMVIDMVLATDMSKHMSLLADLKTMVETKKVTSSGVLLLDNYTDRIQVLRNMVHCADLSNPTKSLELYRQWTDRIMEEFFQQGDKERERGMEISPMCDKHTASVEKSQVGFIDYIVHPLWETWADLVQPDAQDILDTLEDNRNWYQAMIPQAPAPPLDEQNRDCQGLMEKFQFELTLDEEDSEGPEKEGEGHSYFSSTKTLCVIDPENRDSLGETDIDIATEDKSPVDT
T1 sequence (P27815 2-825 isoform P27815-6): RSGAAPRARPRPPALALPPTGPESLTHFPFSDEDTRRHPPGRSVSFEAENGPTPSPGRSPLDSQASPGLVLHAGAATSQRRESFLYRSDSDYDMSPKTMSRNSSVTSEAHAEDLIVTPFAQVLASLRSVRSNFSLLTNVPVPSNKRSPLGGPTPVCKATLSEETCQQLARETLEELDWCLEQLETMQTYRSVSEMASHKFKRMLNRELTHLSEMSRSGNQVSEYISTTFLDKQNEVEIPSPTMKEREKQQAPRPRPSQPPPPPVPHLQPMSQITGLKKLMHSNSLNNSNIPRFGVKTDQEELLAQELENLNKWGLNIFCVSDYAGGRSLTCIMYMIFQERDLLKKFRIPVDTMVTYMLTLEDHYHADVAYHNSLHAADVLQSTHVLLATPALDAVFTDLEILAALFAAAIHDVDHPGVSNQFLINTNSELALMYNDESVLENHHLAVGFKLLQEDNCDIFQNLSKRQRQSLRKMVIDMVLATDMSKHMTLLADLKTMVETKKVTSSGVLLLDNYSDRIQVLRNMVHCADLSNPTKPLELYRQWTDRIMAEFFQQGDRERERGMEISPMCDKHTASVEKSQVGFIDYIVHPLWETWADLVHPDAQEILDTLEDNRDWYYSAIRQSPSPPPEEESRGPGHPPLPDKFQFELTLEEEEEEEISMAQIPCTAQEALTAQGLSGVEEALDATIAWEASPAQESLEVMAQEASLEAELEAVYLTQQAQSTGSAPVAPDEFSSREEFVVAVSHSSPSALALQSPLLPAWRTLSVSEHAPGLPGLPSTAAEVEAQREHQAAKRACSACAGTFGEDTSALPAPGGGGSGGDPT
T3 sequence (Q08493 2-712): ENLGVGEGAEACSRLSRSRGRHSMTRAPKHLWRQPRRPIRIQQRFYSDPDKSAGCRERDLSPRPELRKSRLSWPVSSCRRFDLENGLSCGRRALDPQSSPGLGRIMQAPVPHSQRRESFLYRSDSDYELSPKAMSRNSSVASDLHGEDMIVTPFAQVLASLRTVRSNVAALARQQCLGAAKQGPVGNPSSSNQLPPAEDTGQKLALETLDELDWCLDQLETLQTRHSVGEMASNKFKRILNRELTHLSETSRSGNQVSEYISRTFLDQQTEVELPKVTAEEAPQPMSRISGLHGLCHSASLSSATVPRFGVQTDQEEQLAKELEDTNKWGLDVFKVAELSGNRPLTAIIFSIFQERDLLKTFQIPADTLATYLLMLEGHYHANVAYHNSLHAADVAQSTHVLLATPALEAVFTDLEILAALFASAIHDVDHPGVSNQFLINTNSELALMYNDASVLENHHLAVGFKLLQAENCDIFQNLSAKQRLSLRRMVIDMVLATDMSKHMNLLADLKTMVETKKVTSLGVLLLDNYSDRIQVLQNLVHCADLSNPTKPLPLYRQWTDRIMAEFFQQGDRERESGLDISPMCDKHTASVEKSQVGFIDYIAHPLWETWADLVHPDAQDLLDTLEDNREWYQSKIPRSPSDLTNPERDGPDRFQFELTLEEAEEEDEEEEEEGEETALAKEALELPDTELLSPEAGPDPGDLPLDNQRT

Turning to `O=C(c1nn2cc(F)cnc2c1-c1ccc(Cl)cc1)N1CCC1` [Example 9, Azetidin-1-yl[3-(4-chlorophenyl)-6-fluoropyrazolo[1,5-a]pyrimidin-2-yl]methanone, Formate Salt], the IC50 on Human PDE4A3 is 16.7 nM; against Human PDE4B1 it was 34.4 nM; on Human PDE4C1, 55.3 nM; against human PDE4D3, 3710 nM.

Regarding `O=C(NC1CC1)c1nn2cccnc2c1-c1ccc(Cl)cc1` [Example 10, 3-(4-chlorophenyl)-N-cyclopropylpyrazolo[1,5-a]pyrimidine-2-carboxamide], the IC50 at Human PDE4A3 turned out to be 25.3 nM; at Human PDE4B1 (setting [1]) it was 96.9 nM; at Human PDE4C1, 42.9 nM; at human PDE4D3 (setting [2]) it was 5840 nM.

Take `CC1(NC(=O)c2nn3cccnc3c2-c2ccc(Cl)cc2)CC1` [Example 11, 3-(4-chlorophenyl)-N-(1-methylcyclopropyl)pyrazolo[1,5-a]pyrimidine-2-carboxamide]: the IC50 on Human PDE4A3 is 80.8 nM; on Human PDE4B1 (setting [1]) it was 62.4 nM; on Human PDE4C1, 276 nM; on human PDE4D3 (setting [2]) it was > 10700 nM.

As to `O=C(c1nn2cccnc2c1-c1ccc(Cl)c(F)c1)N1CCC1` [Example 12, azetidin-1-yl[3-(4-chloro-3-fluorophenyl)pyrazolo[1,5-a]pyrimidin-2-yl]methanone], the IC50 on Human PDE4A3 was 22 nM; on Human PDE4B1 (setting [1]) it was 6.06 nM; on Human PDE4C1 it was 48 nM; at human PDE4D3 (setting [2]), 993 nM.

Turning to `O=C(NC1CC1)c1nn2cccnc2c1-c1cc(Cl)ccc1F` [Example 13, 3-(5-chloro-2-fluorophenyl)-N-cyclopropylpyrazolo[1,5-a]pyrimidine-2-carboxamide], the IC50 was 27.2 nM on Human PDE4A3, 57.9 nM at Human PDE4B1 (setting [1]), 57.9 nM on Human PDE4C1 and 2460 nM at human PDE4D3 (setting [2]).

`O=C(NC1CC1)c1nn2cccnc2c1-c1ccc(Cl)cc1F` [Example 14, 3-(4-chloro-2-fluorophenyl)-N-cyclopropylpyrazolo[1,5-a]pyrimidine-2-carboxamide]: the IC50 at Human PDE4A3 is 51.8 nM; on Human PDE4B1 (setting [1]), 179 nM; at Human PDE4C1, 83.3 nM; at human PDE4D3 (setting [2]), > 16700 nM.

Regarding `N#Cc1ccc(-c2c(C(=O)N3CCC3)nn3cccnc23)cc1F` [Example 15, 4-[2-(azetidin-1-ylcarbonyl)pyrazolo[1,5-a]pyrimidin-3-yl]-2-fluorobenzonitrile], the IC50 at Human PDE4A3 was 109 nM; at Human PDE4B1 (setting [1]) it was 51.7 nM; at Human PDE4C1, 52.7 nM; on human PDE4D3 (setting [2]) it was 6630 nM.

Consider `CCNC(=O)c1nn2cccnc2c1-c1cc(F)c(C#N)cc1C` [Example 16, 3-(4-cyano-5-fluoro-2-methylphenyl)-N-ethylpyrazolo[1,5-a]pyrimidine-2-carboxamide], for which the IC50 is 15.9 nM at Human PDE4A3, 54.3 nM at Human PDE4B1 (setting [1]), 79.8 nM at Human PDE4C1 and 2510 nM on human PDE4D3 (setting [2]).

Consider `CCNC(=O)c1nn2cccnc2c1-c1cc(F)c(Cl)cc1C` [Example 17, 3-(4-chloro-5-fluoro-2-methylphenyl)-N-ethylpyrazolo[1,5-a]pyrimidine-2-carboxamide], for which the IC50 on Human PDE4A3 stood at 8.46 nM; at Human PDE4B1 (setting [1]), 21 nM; at Human PDE4C1, 79.8 nM; at human PDE4D3 (setting [2]) it was 967 nM.

On to `CCNC(=O)c1nn2cccnc2c1-c1ccc(Cl)cc1C` [Example 18, 3-(4-chloro-2-methylphenyl)-N-ethylpyrazolo[1,5-a]pyrimidine-2-carboxamide], for which the IC50 was 39.9 nM on Human PDE4A3, 150 nM at Human PDE4B1 (setting [1]), 97.3 nM on Human PDE4C1 and 6880 nM on human PDE4D3 (setting [2]).

Turning to `CCNC(=O)c1nn2cccnc2c1-c1cc(F)c(Cl)cc1F` [Example 19, 3-(4-chloro-2,5-difluorophenyl)-N-ethylpyrazolo[1,5-a]pyrimidine-2-carboxamide], the IC50 worked out at 11.3 nM on Human PDE4A3, 41.4 nM on Human PDE4B1 (setting [1]), 36.4 nM at Human PDE4C1 and 2110 nM on human PDE4D3 (setting [2]).

Regarding `O=C(c1nn2cccnc2c1-c1ccc(Cl)cc1F)N1CCC1` [Example 20, azetidin-1-yl[3-(4-chloro-2-fluorophenyl)pyrazolo[1,5-a]pyrimidin-2-yl]methanone], the IC50 on Human PDE4A3 was 64.5 nM; at Human PDE4B1 (setting [1]), 67.4 nM; at Human PDE4C1, 111 nM; on human PDE4D3 (setting [2]), 10900 nM.

`Cc1cc(Cl)ccc1-c1c(C(=O)N2CCC2)nn2cccnc12` [Example 21, azetidin-1-yl[3-(4-chloro-2-methylphenyl)pyrazolo[1,5-a]pyrimidin-2-yl]methanone]: the IC50 at Human PDE4A3 stood at 16.6 nM; on Human PDE4B1 (setting [1]), 44.6 nM; on Human PDE4C1 it was 56.5 nM; on human PDE4D3 (setting [2]), 4830 nM.

On to `Cc1cc(C#N)c(F)cc1-c1c(C(=O)NC2CCC2)nn2cccnc12` [Example 22, 3-(4-cyano-5-fluoro-2-methylphenyl)-N-cyclobutylpyrazolo[1,5-a]pyrimidine-2-carboxamide], for which the IC50 at Human PDE4A3 was found to be 167 nM; on Human PDE4B1 (setting [1]) it was 273 nM; on Human PDE4C1, 124 nM; on human PDE4D3 (setting [2]) it was 8810 nM.
